Measurements: PubChem BioAssay (NCI)
Several values for one entry are separate records, joined by “and”; a condition that tells them apart may be missing. Equal values may be shown once.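 Interpolation was linear, between the two tested concentrations surrounding the appropriate level; five concentrations were tested over 48 hours in 96-well plates. Abbreviation: GI50, concentration required for 50% inhibition of growth. Definition used: TGI = concentration required for complete inhibition of growth.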

Experiments:
Experiment in all cases: NCI anticancer screen, dose series, 48 h
HCT-116 colon = test system: HCT-116 colon
RPMI-8226 leukemia = test system: RPMI-8226 leukemia
A498 renal = test system: A498 renal
SW-620 colon = test system: SW-620 colon
ACHN renal = test system: ACHN renal
NCI-H522 lung = test system: NCI-H522 lung
M14 melanoma = test system: M14 melanoma
HT29 colon = test system: HT29 colon
COLO 205 colon = test system: COLO 205 colon
U251 CNS = test system: U251 CNS

SMILES | GI50 (HCT-116 colon) | TGI (HCT-116 colon) | GI50 (RPMI-8226 leukemia) | TGI (RPMI-8226 leukemia) | GI50 (A498 renal) | TGI (A498 renal) | GI50 (SW-620 colon) | TGI (SW-620 colon) | GI50 (ACHN renal) | TGI (ACHN renal) | GI50 (NCI-H522 lung) | TGI (NCI-H522 lung) | GI50 (M14 melanoma) | TGI (M14 melanoma) | GI50 (HT29 colon) | TGI (HT29 colon) | GI50 (COLO 205 colon) | TGI (COLO 205 colon) | GI50 (U251 CNS) | TGI (U251 CNS)
COc1ccc(-c2nn3ncccc3c2-c2ccnc(Nc3ccc(F)c(F)c3)n2)cc1 | 7.15 µM | > 25 µM | 14.7 µM | > 25 µM | 3.96 µM | > 23 µM | 17 µM | > 25 µM | 10.4 µM | > 25 µM | 8.18 µM | > 23.6 µM | 9.61 µM | > 25 µM | 5.43 µM | > 25 µM | 15.5 µM | > 25 µM | 10.3 µM | > 25 µM
O=c1oc2ccccc2cc1P(=O)(O)O |  | > 100 µM |  | > 100 µM |  | > 100 µM |  | > 100 µM |  | > 100 µM |  | > 100 µM |  | > 100 µM |  | > 100 µM |  | > 100 µM |  | > 100 µM
N#Cc1nc2cc(Cl)c(Cl)cc2nc1-c1ccc(Cl)cc1 | 15.8 µM | 29.9 µM | 24.3 µM | > 100 µM | 21.5 µM | 60.7 µM | > 100 µM | > 100 µM | 20 µM | 47.6 µM | 51.5 µM | > 100 µM | > 85.3 µM | > 100 µM | > 100 µM | > 100 µM | > 76.3 µM | > 100 µM | 19.3 µM | 39.3 µM
COc1cc2c(cc1OCCCCCOc1ccc(-c3nc4ccccc4s3)cc1)N=C[C@@H]1CCCN1C2=O | 1.23 µM | 12.4 µM | 1.03 µM | 4.14 µM | 5.29 µM | 11.5 µM | 3.01 µM | > 28.6 µM | 2.73 µM | 27.6 µM | 1.72 µM | 13.7 µM | 1.46 µM | 9.08 µM | 1.58 µM | 18 µM | 1.32 µM | 6.53 µM | 1.47 µM | 16.1 µM
CC[C@@H]1C(=O)N(C)c2cnc(Nc3ccc(C(=O)NC4CCC(N5CCN(CC6CC6)CC5)CC4)cc3OC)nc2N1C(C)C (some centres undefined) | 0.0136 µM and 0.022 µM | > 3.83 µM and 1.68 µM | 0.0382 µM and 0.0558 µM | 1.62 µM and 1.89 µM | 0.0284 µM and 0.0338 µM | 0.236 µM and 0.252 µM | 0.00561 µM and 0.0102 µM | > 10 µM and 11.1 µM | 0.305 µM and 0.222 µM | > 10 µM and 13.6 µM | 0.00462 µM and < 0.0115 µM | 0.0822 µM and 0.0564 µM | 0.00963 µM and 0.0349 µM | > 3.81 µM and 2.39 µM | 0.00436 µM and < 0.01 µM | 2.07 µM and 1.35 µM | 0.00438 µM and < 0.01 µM | 0.276 µM and 0.268 µM | 0.0263 µM and 0.0276 µM | > 7.97 µM and 2.14 µM
C[C@]12CC[C@H]3[C@@H](CCC4=CC(=O)CC[C@@]43C)[C@]1(O)CC[C@]2(O)C(=O)CO |  | > 100 µM |  | > 100 µM |  | > 100 µM |  | > 100 µM |  | > 100 µM |  | > 100 µM |  | > 100 µM |  | > 100 µM |  | > 100 µM |  | > 100 µM
COc1cc(-c2csc(NC(=O)Nc3ccc(Cl)cc3)n2)cc(OC)c1OC | 2.83 µM | 8.12 µM | 2.14 µM | 5.78 µM | 2.24 µM | 8.03 µM | 3.96 µM | > 100 µM | 2.53 µM | 7.35 µM | 2.34 µM | 6.95 µM | 2.27 µM | 5.92 µM | 3.01 µM | 12.4 µM | 2.52 µM | 7.05 µM | 3.35 µM | 13.1 µM
CN1CCN(c2ccc3nc(-c4[nH]ncc4Nc4ncnc5[nH]ccc45)[nH]c3c2)CC1 | 0.0665 µM |  | 5.92 µM | 19.3 µM | 0.253 µM | 0.588 µM | 0.312 µM | 3.47 µM | 0.394 µM | 7.66 µM | 0.196 µM | 0.805 µM | 0.377 µM | 1.84 µM | 1.47 µM | 6.06 µM | 0.147 µM | 0.695 µM | 0.234 µM | 11.4 µM
O=c1c(-c2cccc3ccccc23)c(-c2cccc3ccccc23)c1=O |  | 37.6 µM |  | > 100 µM |  | 18.1 µM |  | 58.9 µM |  | > 100 µM |  | 3.12 µM |  | 8.51 µM |  | 3.03 µM |  | 1.64 µM |  | 18.4 µM
O=C(Nc1ccccc1/C=C/c1n[nH]c2ccccc12)c1ccccc1 | 2.28 µM | 10.5 µM | 3.07 µM | 12.8 µM | 1.42 µM | 3.21 µM | 1.71 µM | 11.5 µM | 7.71 µM | 20.1 µM | 9.28 µM | 24 µM | 3.32 µM | 15 µM | 1.78 µM | 7 µM | 1.71 µM | 3.6 µM | 1.72 µM | 3.75 µM
CS(=O)(=O)N(CCC#N)c1ccc(/C=C2\N=C(c3ccccc3Cl)OC2=O)cc1 |  | > 100 µM |  | > 100 µM |  | > 100 µM |  | > 100 µM |  | > 100 µM |  | > 100 µM |  | > 100 µM |  | > 100 µM |  | > 100 µM |  | > 100 µM
CC(NC(=O)c1ccc(Cl)c(Cl)c1)c1ccc(-c2ccccc2)cc1 (centres undefined) |  | > 100 µM |  | > 100 µM |  | > 100 µM |  | > 100 µM |  | > 100 µM |  | > 100 µM |  | > 100 µM |  | > 100 µM |  | > 100 µM |  | > 100 µM
CCn1c(-c2nonc2N)nc2cnc(Oc3cccc(NC(=O)c4ccc(OCCN5CCOCC5)cc4)c3)cc21 | 1.81 µM | > 25 µM | 4.28 µM | > 25 µM | 1.05 µM | > 23.7 µM | 4.57 µM | > 25 µM | 2.17 µM | > 25 µM | 1.41 µM | > 25 µM | 12.7 µM | > 25 µM | 10.7 µM | > 25 µM | 3.34 µM | > 25 µM | 7.17 µM | > 25 µM
O=C(O)c1c2c(c(O)c3c1CN(C1CCCCC1)CO3)OCN(C1CCCCC1)C2 |  | > 100 µM |  | > 100 µM |  | > 100 µM |  | 52.5 µM |  | > 100 µM |  | 95.9 µM |  | > 100 µM |  | > 100 µM |  | > 100 µM |  | > 100 µM
O=C(c1ccccc1)[C@H]1Nc2ccc(Cl)cc2[C@H]2c3ccccc3O[C@H]21 |  | 34.3 µM |  | > 100 µM |  | 24.5 µM |  | 31.2 µM |  | 28.7 µM |  | 33.8 µM |  | 30.1 µM |  | 26.1 µM |  | 37.4 µM |  | 29.2 µM
